Paper PMC7053488 (Cell, 2019)

Columns and labels:
[1] = target: T1, rat P2X7 receptor (rP2X7) (Rattus norvegicus, UniProt Q64663); assay: cryo-EM structure; assay type: cell-based
T1 sequence (Q64663 1-595): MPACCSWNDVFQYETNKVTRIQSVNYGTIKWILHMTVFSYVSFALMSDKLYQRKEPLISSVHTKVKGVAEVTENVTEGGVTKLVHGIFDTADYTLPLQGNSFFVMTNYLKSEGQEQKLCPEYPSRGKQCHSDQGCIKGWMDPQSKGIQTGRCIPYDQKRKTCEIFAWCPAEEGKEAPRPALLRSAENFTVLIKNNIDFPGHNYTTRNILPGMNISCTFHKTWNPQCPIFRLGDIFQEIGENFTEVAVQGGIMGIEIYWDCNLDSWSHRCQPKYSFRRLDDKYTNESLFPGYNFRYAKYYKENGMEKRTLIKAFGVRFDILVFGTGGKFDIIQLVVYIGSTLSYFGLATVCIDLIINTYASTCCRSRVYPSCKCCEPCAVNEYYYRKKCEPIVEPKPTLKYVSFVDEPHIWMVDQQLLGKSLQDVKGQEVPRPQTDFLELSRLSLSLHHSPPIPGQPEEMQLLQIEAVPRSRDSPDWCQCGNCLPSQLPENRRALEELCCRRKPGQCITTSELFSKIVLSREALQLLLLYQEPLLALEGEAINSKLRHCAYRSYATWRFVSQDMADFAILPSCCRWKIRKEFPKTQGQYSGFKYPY

[2] = target: rat P2X7 receptor, rP2X7-ΔBallast (Rattus norvegicus, UniProt Q64663)
[3] = target: T1, rat P2X7 receptor (rP2X7); assay: SPA competition with 3H-GDP; assay type: binding
[4] = target: T1, rat P2X7 receptor (rP2X7); assay: cryo-EM structure; assay type: binding

Row | Ki [3] [µM] | SMILES | also measured
1 | – | Nc1ncnc2c1ncn2[C@@H]1O[C@H](COP(=O)(O)OP(=O)(O)OP(=O)(O)O)[C@@H](O)[C@H]1O [ATP] | EC50 [1]: 42 ± 3 µM; EC50 [2]: 52 ± 11 µM
2 | 130 ± 3 | Nc1ccn([C@@H]2O[C@H](COP(=O)(O)OP(=O)(O)OP(=O)(O)O)[C@@H](O)[C@H]2O)c(=O)n1 [CTP] | –
3 | – | Nc1nc2c(ncn2[C@@H]2O[C@H](COP(=O)(O)OP(=O)(O)O)[C@@H](O)[C@H]2O)c(=O)[nH]1 [GDP] | Kd [4]: 40 ± 10 nM
4 | 0.15 ± 0.015 | Nc1nc2c(ncn2[C@@H]2O[C@H](COP(=O)(O)OP(=O)(O)OP(=O)(O)O)[C@@H](O)[C@H]2O)c(=O)[nH]1 [GTP] | –
5 | 60 ± 10 | O=c1ccn([C@@H]2O[C@H](COP(=O)(O)OP(=O)(O)OP(=O)(O)O)[C@@H](O)[C@H]2O)c(=O)[nH]1 [UTP] | –

Row | SMILES | Ki [3] [µM] | also measured
6 | Nc1nc2c(ncn2[C@@H]2O[C@H](COP(=O)(O)OP(=O)(O)OP(O)(O)=S)[C@@H](O)[C@H]2O)c(=O)[nH]1 [GTP-γ-S] | 0.1 ± 0.01 | –
